Counter-ions that a name gives are not always drawn.
target: T1, human TGR5 (Homo sapiens, UniProt Q8TDU6); assay: Cell-based TGR5 assay (cAMP generation, HTRF); details: HEK293 cells stably transfected with human TGR5; cAMP by HTRF; 30 minutes at 37° C.; read-out: pEC50 Human TGR5 (converted)
T1 construct: expressed in transfected cells; host or cells: HEK293
T1 sequence (Q8TDU6 1-330): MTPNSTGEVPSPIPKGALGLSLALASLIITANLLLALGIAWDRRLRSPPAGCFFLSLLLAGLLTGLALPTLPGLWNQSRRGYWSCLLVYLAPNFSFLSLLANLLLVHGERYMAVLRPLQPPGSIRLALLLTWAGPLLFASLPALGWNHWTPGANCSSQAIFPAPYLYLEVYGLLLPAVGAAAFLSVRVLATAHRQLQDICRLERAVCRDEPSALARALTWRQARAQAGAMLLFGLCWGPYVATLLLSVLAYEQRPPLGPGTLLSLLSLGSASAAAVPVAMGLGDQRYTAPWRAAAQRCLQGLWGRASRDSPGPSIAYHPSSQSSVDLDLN
Procedure, shortened: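 Read-out was HTRF detection of cAMP, converted to concentration via a standard curve and fitted (3-parameter logistic) for pEC50 and maximal response. Agonist stimulation used HEK293 cells stably transfected with human TGR5, incubated 30 min at 37° C in IBMX-containing buffer at 0.05 nM to 10 μM compound.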

**Q.** With `CC(CCCC(=O)N(CCOCCO)C[C@H](O)[C@@H](O)[C@H](O)[C@H](O)CO)c1ccc(Cl)c(CNC2(c3cnccc3-c3ccccc3OC3CC3)CC2)c1` (stereo partly drawn) [Compound I-342, 5-{4-chloro-3-[({1-[4-(2-cyclopropoxyphenyl)pyridin-3-yl]cyclopropyl]amino)methyl]phenyl}-N-[2-(2-hydroxyethoxy)ethyl]-N-[(2S,3R,4R,5R)-2,3,4,5,6-pentahydroxyhexyl]hexanamide] as the molecule, how does the EC50 read?
**A.** < 100 nM

**Q.** Which EC50 does the source give for `CN(C)C[C@H](NC(=O)CCCCc1cc(Cl)c(COC2(c3cnccc3-c3ccccc3OC3CC3)CC2)cc1Cl)[C@@H](O)[C@H](O)[C@H](O)CO` [Compound I-165, 5-[2,5-dichloro-4-({1-[4-(2-cyclopropoxyphenyl)pyridin-3-yl]cyclopropoxy}methyl)phenyl]-N-[(2S,3R,4S,5R)-1-(dimethylamino)-3,4,5,6-tetrahydroxyhexan-2-yl]pentanamide] here?
**A.** < 100 nM

**Q.** `CC(=O)N(CCCC(C)c1ccc(Cl)c(CNC2(c3cnccc3-c3ccccc3OC3CC3)CC2)c1)C[C@H](O)[C@@H](O)[C@H](O)[C@H](O)CO` (stereo partly drawn) [Compound I-377, N-(4-{4-chloro-3-[({1-[4-(2-cyclopropoxyphenyl)pyridin-3-yl]cyclopropyl}amino)methyl]phenyl}pentyl)-N-[(2S,3R,4R,5R)-2,3,4,5,6-pentahydroxyhexyl]acetamide] was tested. Which EC50 did it give?
**A.** < 100 nM

**Q.** `CCCN(CCCCc1cc(Cl)c(COC2(c3cnccc3-c3ccccc3OC3CC3)CC2)cc1Cl)C(=O)[C@@H](O)[C@@H](O)[C@H](O)[C@@H](O)CO` [Compound I-205, (2S,3S,4R,5S)-N-{4-[2,5-dichloro-4-({1-[4-(2-cyclopropoxyphenyl)pyridin-3-yl]cyclopropoxy}methyl)phenyl]butyl}-2,3,4,5,6-pentahydroxy-N-propylhexanamide] was tested. Which EC50 did it give?
**A.** < 100 nM

**Q.** With `O=C(NCCCCCc1cc(Cl)c(CNC2(c3cnccc3-c3ccccc3OC3CC3)CC2)cc1Cl)NC[C@H](O)[C@@H](O)[C@H](O)[C@H](O)CO` [Compound I-60, 1-(5-[2,5-dichloro-4-[([1-[4-(2-cyclopropoxyphenyl)pyridin-3-yl]cyclopropyl]amino)methyl]phenyl]pentyl)-3-[(2S,3R,4R,5R)-2,3,4,5,6-pentahydroxyhexyl]urea hydrochloride] as the molecule, how does the EC50 read?
**A.** < 100 nM

**Q.** How did the EC50 turn out when `CC(C)(NCc1cc(Cl)ccc1Cl)c1cnccc1-c1ccccc1OC1CC1` [Compound I-723, 2-(4-(2-Cyclopropoxyphenyl)pyridin-3-yl)-N-(2,5-dichlorobenzyl)propan-2-amine] was run?
**A.** < 100 nM

**Q.** Which EC50 does the source give for `Cc1ccc(SCCCCN(CCOCCO)C(=O)[C@@H](O)[C@@H](O)[C@H](O)[C@@H](O)CO)cc1COC1(c2cnccc2-c2ccccc2OC2CC2)CC1` [Compound I-551, (2S,3S,4R,5S)-N-(4-{[3-({1-[4-(2-cyclopropoxyphenyl)pyridin-3-yl]cyclopropoxy}methyl)-4-methylphenyl]sulfanyl}butyl)-2,3,4,5,6-pentahydroxy-N-[2-(2-hydroxyethoxy)ethyl]hexanamide] here?
**A.** 126 to 1000 nM

**Q.** With `O=C(NCCCCc1ccc(Cl)c(CNC2(c3cnccc3-c3ccccc3OC3CC3)CC2)c1)NC[C@H](O)[C@@H](O)[C@H](O)[C@H](O)CO` [Compound I-64, 1-(4-[4-chloro-3-[([1-[4-(2-cyclopropoxyphenyl)pyridin-3-yl]cyclopropyl]amino)methyl]phenyl]butyl)-3-[(2S,3R,4R,5R)-2,3,4,5,6-pentahydroxyhexyl]urea] as the molecule, how does the EC50 read?
**A.** < 100 nM

**Q.** `Cc1ccc(C(C)CCCN(C(=O)[C@@H](O)[C@@H](O)[C@H](O)[C@@H](O)CO)C2CCOCC2)cc1CNC1(c2cnccc2-c2ccccc2OC2CC2)CC1` (stereo partly drawn) [Compound I-304, (2S,3S,4R,5S)-N-(4-{3-[({1-[4-(2-cyclopropoxyphenyl)pyridin-3-yl]cyclopropyl}amino)methyl]-4-methylphenyl}pentyl)-2,3,4,5,6-pentahydroxy-N-(oxan-4-yl)hexanamide] was tested. Which EC50 did it give?
**A.** < 100 nM
